Measured values published in patent publication US9376665B2, “Method for producing intestinal cells” (National University Corporation Kumamoto University, priority 2010, dated 2016).

How the values were obtained:
mouse ES cells [1] = experiment: Intestinal differentiation of mouse ES cells on M15 cells; marker expression by PCR and immunohistochemistry; assay type: cell-based; conditions: quantitative PCR, BIO or DAPT added alone after definitive endoderm induction, Day 20 (d20)
Method: In this example, a cell line R1 was used as mouse ES cells. The cell line R1 was maintained on mouse embryonic fibroblast (MEF) feeders in 2000 mg/L-glucose-containing DMEM supplemented with Leukemia Inhibitory Factor (LIF), 10% fetal bovine serum (FBS), 100 μM of non-essential amino acids (NEAA), 2 mM of L-Gln, 50 units/mL of penicillin and 50 μg/mL of streptomycin (PS), and 100 μM β-mercaptoethanol.
(§1) The ES cells were culture on M15 cells added with 20 ng/mL of activin and 50 ng/mL of bFGF in DMEM medium containing 10% fetal bovine sera and […] of glucose for 5 days, and were analyzed using flow cytometry for definitive endoderm. For intestinal differentiation, the ES cells were further cultured on M15 or MEF cells, in the presence of BIO and DAPT, or without BIO and DAPT but with FGFs, in media with 10% KSR at a glucose concentration of 2000 mg/mL.
RNA was extracted from the ES cells using TRI Reagent (Sigma) or RNeasy micro-kit (Qiagen), and then, was treated with DNase (Sigma). Three micrograms of RNA were reverse-transcribed using a MMLV reverse transcriptase (Toyobo) and oligo dT primers (Toyobo). […]

[2] = test system: definitive endoderm cells; experiment: Re-culture of sorted ES cell-derived definitive endoderm cells on feeder cells with BIO and DAPT; marker expression; assay type: cell-based, mouse
Method: as §1
The cells were dissociated with Cell Dissociation Buffer (Invitrogen), adjusted to 1×10^6 cells/50 μL, and stained with appropriate antibodies. A biotin- or Alexa 488-conjugated anti-E-cadherin monoclonal antibody ECCD2, and a phycoerythrin (PE)-conjugated anti-Cxcr4 mAb 2B11 (BD Pharmingen) were used as the antibodies. The stained cells were purified with FACS Aria (BD Pharmingen). Data were recorded using the BD FACSDiva Software program (BD Pharmingen), and were analyzed using the Flowjo program (Tree Star).
(§2) RNA was extracted from the ES cells using TRI Reagent (Sigma) or RNeasy micro-kit (Qiagen), and then, was treated with DNase (Sigma). Three micrograms of RNA were reverse-transcribed using a MMLV reverse transcriptase (Toyobo) and oligo dT primers (Toyobo). The PCR conditions for each cycle include initial denaturation at 96° C. for one minute, and the second and subsequent cycles of denaturation at 96° C. for 30 seconds, annealing at 60° C. for 2 seconds and extension at 72° C. for 20 seconds, and the final cycle of extension at 72° C. for 7 minutes. RT-PCR products were separated by 5% non-denaturing polyacrylamide gel electrophoresis, stained with SYBR Green I (Molecular Probes), and visualized using Gel Logic 200 Imaging System (Kodak).

mouse ES cells [3] = experiment: Test Example 2: addition of various activators, proportion of Cdx2-positive cells by flow cytometry, feeder-free; assay type: cell-based; conditions: for efficiency of differentiation, BMP4 or SAG added besides FGF2: 15th day of cultivation, with BIO and DAPT
Method: Therefore, next, an experiment in which the FGF signaling, the BMP signaling and the Hh signaling were activated was carried out. In view of micro-array data showing that MEF cells express FGF2 and BMP4, 50 ng/mL of FGF2 (PEPROTECH) and 25 ng/mL of BMP4 (R&D Systems) were used to activate the FGF signaling and the BMP signaling. Furthermore, as to activation of the Hh signaling, 300 nM of SAG (MERCK) (smoothend agonist; smo) was used.
For the experiment of inducing the differentiation, the induction of differentiation was carried out in a feeder-free system as described below. First, mouse ES cells were plated on a gelatin-coated dish at 6,900 cells/cm^2. The ES cells were cultured for 7 days in DMEM medium (Dulbecco's Modified Eagle Medium) (Invitrogen, Glasgow, UK) containing 4,500 mg/L of glucose, supplemented with NEAA, L-Gln, PS, β-ME, 10 μg/mL of Insulin (Sigma-Aldrich), […] of Transferin (Sigma-Aldrich), 6.7 pg/mL of Selenium (Sigma-Aldrich), 0.25% AlbuMax (Invitrogen), and 10 ng/mL of recombinant human activin A (R&D Systems, Minneapolis, Minn.), and then, the culture medium was replaced with 10% KSR containing 2,000 mg/mL of glucose, BIO (5 μM) and DAPT (10 μM) and further supplemented with the activator or growth factor. After that, cell culturing was further continued, the cells were separated on the 10th day and the 15th day of cultivation as described in Example 1, and then, the proportion of Cdx2-positive cells was evaluated by use of flow cytometry. The flow cytometry (FACS) analysis was carried out using BD Cytofix/Cytoperm™ Kit (BD Biosciences) in accordance with a manual provided by the manufacturer.

ES cells = experiment: Effect of signalling inhibitors on intestinal differentiation by BIO and DAPT (Cdx2 RT-PCR and immunohistochemistry); assay type: cell-based, mouse; conditions: inhibitor added with BIO and DAPT on MEF cells; RT-PCR and anti-Cdx2 immunohistochemistry, day 12
Method: Definitive endoderms were sorted from ES cells which had been cultured on M15 cells with activin and bFGF for 4 days, and the sorted cells were re-plated on MEF cells.
10 μg/mL of human bFGF (Peprotech), U0126 (Sigma), LY294002 (Calbiochem), and SU5402 (Calbiochem), respectively;

mouse ES cells [4] = experiment: Test Example 1: addition of various inhibitors, Cdx2 expression by real-time PCR; assay type: cell-based; conditions: inhibitor plus BIO (5 μM) and DAPT (10 μM) on MEF cells for 8 days (12th day of cultivation), Noggin 500 ng/mL, Dorsomorphin 200 nM, KAAD-Cyclopamine 250 nM
Method: In order to clarify what mechanism induces the intestinal differentiation in a case where mouse ES cells are used as a starting material, inhibitors against various signal transduction systems were added besides BIO and DAPT, and conditions in which expression of an intestinal marker Cdx2 decreases were evaluated.
As an inhibitor, 500 ng/mL of Noggin (R&D systems) or 200 nM of Dorsomorphin (SIGMA-ALDRICH), which is a BMP-signaling inhibitor; 1 μM of LE540 (Wako), which is a retinoic-acid-signaling inhibitor; 250 nM of KAAD-Cyclopamine (Calbiochem), which is a hedgehog-signaling inhibitor; or 10 μM of AMD3100 (SIGMA-ALDRICH), which is a Cxcr4 inhibitor, was added thereto. […] After that, the above-sorted definitive endoderm cells were cultured in the presence of BIO (5 μM) and DAPT (10 μM) as well as the above-mentioned inhibitor for 8 days (until the 12th day of cultivation) in accordance with the method described in Example 1, RNAs were extracted from the cells by the method described in Example 1, and expression of the Cdx2 gene, namely an intestinal marker, was analyzed by real-time PCR. The real-time PCR was carried out by use of the primer pairs used in Example 1 (see Table 1), Thunderbird SYBR qPCR mix (Toyobo), and 7500 Fast Real-Time PCR system (ABI Company).

[5] = test system: definitive endoderm cells; experiment: Effects of FGFs on intestinal differentiation of definitive endoderm cells (RT-PCR, Cdx2 immunohistochemistry); assay type: cell-based, mouse; conditions: FGFs added from Day 4 of the differentiation, on MEF cells; immunohistochemistry on day 12
Method: as §1
256 ng/mL of FGF2 (human bFGF) (Peprotech); and
50 ng/mL of FGF4 (Peprotech), FGF5 (Sigma), FGF7 (R&D Systems), FGF8 (Cosmo Bio), FGF9 (Peprotech), FGF10 (R&D Systems) and FGF18 (Sigma), respectively.
as §2

[6] = high BIO concentration with DAPT (10 μM)
[7] = high concentration of DAPT in the presence of BIO (5 μM)

O=C1Nc2cc(Br)ccc2/C1=C1/Nc2ccccc2/C1=N\O [BIO, (2′Z,3′E)-6-bromoindirubin-3′-oxime]
expression of Intestinal fatty acid binding protein (Ifabp) (mouse ES cells [1]): induced expression
Hoxc8 [2, 6]: turning on
Pax8 [2, 6]: turned off

C[C@H](NC(=O)Cc1cc(F)cc(F)c1)C(=O)N[C@H](C(=O)OC(C)(C)C)c1ccccc1 [DAPT, N-[(3,5-difluorophenyl)acetyl]-L-Ala-2-phenyl-L-Gly-tert-butyl-OH]
expression of Intestinal fatty acid binding protein (Ifabp) (mouse ES cells [1]): induced expression
anterior marker Pax8 [2, 7]: turned off
posterior marker Hoxc8 [2, 7]: inducing

CNC1CCC(N(Cc2cccc(-c3ccncc3)c2)C(=O)c2sc3ccccc3c2Cl)CC1 (stereo not drawn) [SAG, N-Methyl-N′-(3-pyridinylbenzyl)-N′-(3-chlorobenzo[b]thiophene-2-carbonyl)-1,4-diaminocyclohexane, reference compound]
number of Cdx2-positive cells versus control (only BIO and DAPT) (mouse ES cells [3]; 10th day of cultivation, FGF2 50 ng/mL or SAG 300 nM added besides BIO and DAPT): decrease
efficiency of differentiation, BMP4 or SAG added besides FGF2 (mouse ES cells [3]): yet more efficiently differentiate

Cc1c[nH]c(/C=C2\C(=O)Nc3ccccc32)c1CCC(=O)O [SU5402]
intestinal differentiation mediated by BIO and DAPT (Cdx2 expression) (ES cells): partially inhibited

N#CC(=C(/N)Sc1ccccc1N)/C(C#N)=C(\N)Sc1ccccc1N [U0126]
intestinal differentiation mediated by BIO and DAPT (Cdx2 expression) (ES cells): not inhibited

KAAD-Cyclopamine [reference compound]
expression of Cdx2 (mouse ES cells [4]): lowered

B1: BMP4: BMP4 (R&D Systems), activates the BMP signaling (protein, UniProt P12644 293-408, looked up)
Bone morphogenetic protein 4: SPKHHSQRARKKNKNCRRHSLYVDFSDVGWNDWIVAPPGYQAFYCHGDCPFPLADHLNSTNHAIVQTLVNSVNSSIPKACCVPTELSAISMLYLDEYDKVVLKNYQEMVVEGCGCR
number of Cdx2-positive cells, BMP4 added in addition to SAG (mouse ES cells [3]; 10th day of cultivation, BMP4 25 ng/mL, SAG 300 nM, BIO and DAPT): improved
efficiency of differentiation, BMP4 or SAG added besides FGF2 (mouse ES cells [3]): yet more efficiently differentiate

B2: FGF7: FGF7 (R&D Systems), growth factor (protein, UniProt P21781 32-194, looked up)
Fibroblast growth factor 7: CNDMTPEQMATNVNCSSPERHTRSYDYMEGGDIRVRRLFCRTQWYLRIDKRGKVKGTQEMKNNYNIMEIRTVAVGIVAIKGVESEFYLAMNKEGKLYAKKECNEDCNFKELILENHYNTYASAKWTHNGGEMFVALNQKGIPVRGKKTKKEQKTAHFLPMAIT
induction of Cdx2-expressing intestinal cells [5]: induced intestinal differentiation of ES cells, but the levels thereof were lower

B3: FGF18: FGF18 (Sigma), growth factor (protein, UniProt O76093 28-207, looked up)
Fibroblast growth factor 18: EENVDFRIHVENQTRARDDVSRKQLRLYQLYSRTSGKHIQVLGRRISARGEDGDKYAQLLVETDTFGSQVRIKGKETEFYLCMNRKGKLVGKPDGTSKECVFIEKVLENNYTALMSAKYSGWYVGFTKKGRPRKGPKTRENQQDVHFMKRYPKGQPELQKPFKYTTVTKRSRRIRPTHPA
induction of Cdx2-expressing intestinal cells [5]: induced intestinal differentiation of ES cells, but the levels thereof were lower

B4: FGF10: FGF10 (R&D Systems), growth factor (protein, UniProt O15520 38-208, looked up)
Fibroblast growth factor 10: QALGQDMVSPEATNSSSSSFSSPSSAGRHVRSYNHLQGDVRWRKLFSFTKYFLKIEKNGKVSGTKKENCPYSILEITSVEIGVVAVKAINSNYYLAMNKKGKLYGSKEFNNDCKLKERIEENGYNTYASFNWQHNGRQMYVALNGKGAPRRGQKTRRKNTSAHFLPMVVHS
induction of Cdx2-expressing intestinal cells [5]: induced intestinal differentiation of ES cells, but the levels thereof were lower

B5: FGF4: FGF4 (Peprotech), growth factor (protein, UniProt P08620 31-206, looked up)
Fibroblast growth factor 4: APTAPNGTLEAELERRWESLVALSLARLPVAAQPKEAAVQSGAGDYLLGIKRLRRLYCNVGIGFHLQALPDGRIGGAHADTRDSLLELSPVERGVVSIFGVASRFFVAMSSKGKLYGSPFFTDECTFKEILLPNNYNAYESYKYPGMFIALSKNGKTKKGNRVSPTMKVTHFLPRL
induction of Cdx2-expressing intestinal cells [5]: more potent in inducing Cdx2-expressing cells than FGF2 (bFGF)

B6: Noggin: Noggin (R&D systems), a BMP-signaling inhibitor (protein, UniProt Q13253 28-232, looked up)
Noggin: QHYLHIRPAPSDNLPLVDLIEHPDPIFDPKEKDLNETLLRSLLGGHYDPGFMATSPPEDRPGGGGGAAGGAEDLAELDQLLRQRPSGAMPSEIKGLEFSEGLAQGKKQRLSKKLRRKLQMWLWSQTFCPVLYAWNDLGSRFWPRYVKVGSCFSKRSCSVPEGMVCKPSKSVHLTVLRWRCQRRGGQRCGWIPIQYPIISECKCSC
expression of Cdx2 (mouse ES cells [4]): lowered
